In publication PMC9643456, “Matching amino acids membrane preference profile to improve activity of antimicrobial peptides” (Communications Biology, 2022):
In brackets after ≈: the same amount, converted by molar mass. Square brackets hold non-standard residues; d marks the D form. Peptide text beside a SMILES is read from it. Trp(5-OH) = N[C@@H](Cc1c[nH]c2ccc(O)cc12)C(=O)O

Legend:
Experiment in all cases: microbe, parasite or virus in culture
MDR A. baumannii = conditions: CLSI broth microdilution; CAMHB with 50 mg/L Ca2+, 10 mg/L Mg2+; 5 × 10^5 CFU/ml; 18 h 37 °C; triplicate; strain ATCC BAA-1605
From the text: (§1) MDR Pseudomonas aeruginosa (CCARM 2180) was purchased from the Culture Collection of Antimicrobial Resistance Microbes (Seoul, Republic of Korea). MDR Acinetobacter baumannii (ATCC BAA-1605) and MDR Enterococcus faecalis (ATCC 51575) were purchased from the American Type Culture Collection (Manassas, VA, USA). MDR Staphylococcus aureus (KCCM 40510) was purchased from the Korean Culture Center of Microorganisms (Seoul, Republic of Korea). S. aureus (KCTC 1621) was purchased from the Korean Collection for Type Cultures. A. baumannii (KCCM 40203) was purchased from the Korean Culture Center of Microorganisms (Seoul, Republic of Korea).
(§2) To assess antimicrobial activity, the MIC50 and MIC90 were measured using broth microdilution following CLSI guidelines. […] Each experiment was performed in triplicate. Meropenem (Sigma, Darmstadt, Germany) and colistin were used as control antibiotics. Cation-adjusted Mueller–Hinton broth (CAMHB) (Becton, Dickinson and Company, Franklin Lakes, USA) with supplied calcium (50 mg/L) and magnesium (10 mg/L) was used for the CLSI-test condition. Bacteria in midlog phase and peptides were separately diluted in CAMHB. The bacteria and peptide solutions were then mixed in 96-well polyethylene plates (SPL, Gyeonggi-do, Korea) and incubated for 18 h at 37 °C. The final concentration for bacteria was 5 × 10^5 CFU/ml. […] The MIC was defined to be the lowest concentration of peptide without visible turbidity by comparing with control antibiotics with the unaided eye. […] Each experiment was performed in triplicate. MICs in albumin and acetic acid solutions were measured using the same protocol but with 0.2% bovine serum albumin (Bovogen, Keilor, Australia), 0.01% acetic acid (Merck, New Jersey, USA), and CAMHB with both calcium and magnesium. In addition, MICs used in the antibiotic resistance acquisition test, the outer–inner membrane permeation test, and the transmembrane potential test and for FE-SEM were individually determined. The final bacterial concentrations used were as follows: for resistance acquisition, optical density (OD) 0.01; for outer–inner membrane permeability assays (LB), OD 0.1; for the transmembrane potential test, 1 × 10^8 CFU/ml (OD 0.171); […]. Inhibitory activity unidentifiable by direct observation was determined by counting the CFUs. Each experiment was performed at least twice.

MDR P. aeruginosa = conditions: CLSI broth microdilution; CAMHB with 50 mg/L Ca2+, 10 mg/L Mg2+; 5 × 10^5 CFU/ml; 18 h 37 °C; no visible turbidity; triplicate; strain CCARM 2180
From the text: as §1, §2

MDR S. aureus = conditions: CLSI broth microdilution; CAMHB with 50 mg/L Ca2+, 10 mg/L Mg2+; 5 × 10^5 CFU/ml; 18 h 37 °C; triplicate; strain KCCM 40510
From the text: as §1, §2

MDR E. faecalis = conditions: CLSI broth microdilution; CAMHB with 50 mg/L Ca2+, 10 mg/L Mg2+; 5 × 10^5 CFU/ml; 18 h 37 °C; triplicate; strain ATCC 51575
From the text: as §1, §2

`CC[C@@H](C)[C@@H](NC(=O)[C@@H](Cc1c[nH]c2ccccc12)NC(=O)[C@@H](CCC(=O)O)NC(=O)[C@@H](CC(C)C)NC(=O)[C@H](N)Cc1c[nH]c2ccccc12)C(=O)NCC(=O)N[C@H](CC(C)C)C(=O)N[C@H](CCCNC(=N)N)C(=O)N[C@H](CCCCN)C(=O)N[C@H](CCCCN)C(=O)N[C@H](CCCNC(=N)N)C(N)=O` [WCopWE] (H-[dW][dL][dE][dW][dI]G[dL][dR][dK][dK][dR]-NH2) was tested, and the “Minimum inhibitory concentrations, MDR A. baumannii” value (MDR A. baumannii) was 10 µM (≈ 14.8 µg/mL), the “Minimum inhibitory concentrations, MDR P. aeruginosa” value (MDR P. aeruginosa) was over 20 µM and the “Minimum inhibitory concentrations, MDR S. aureus” value (MDR S. aureus) was over 20 µM. The “Minimum inhibitory concentrations, MDR E. faecalis” value (MDR E. faecalis) was over 20 µM.
With `CC[C@@H](C)[C@@H](NC(=O)[C@@H](Cc1c[nH]c2ccccc12)NC(=O)[C@@H](Cc1ccccc1)NC(=O)[C@@H](CC(C)C)NC(=O)[C@H](N)Cc1c[nH]c2ccccc12)C(=O)NCC(=O)N[C@H](CC(C)C)C(=O)N[C@H](CCCNC(=N)N)C(=O)N[C@H](CCCCN)C(=O)N[C@H](CCCCN)C(=O)N[C@H](CCCNC(=N)N)C(N)=O` [WCopWF] (H-[dW][dL][dF][dW][dI]G[dL][dR][dK][dK][dR]-NH2) the “Minimum inhibitory concentrations, MDR A. baumannii” value (MDR A. baumannii) was 1.25 µM (≈ 1.88 µg/mL), the “Minimum inhibitory concentrations, MDR P. aeruginosa” value (MDR P. aeruginosa) was 10 µM (≈ 15 µg/mL) and the “Minimum inhibitory concentrations, MDR S. aureus” value (MDR S. aureus) was 2.5 µM (≈ 3.75 µg/mL). The “Minimum inhibitory concentrations, MDR E. faecalis” value (MDR E. faecalis) was 2.5 µM (≈ 3.75 µg/mL).
For `CC[C@@H](C)[C@@H](NC(=O)[C@@H](Cc1c[nH]c2ccccc12)NC(=O)[C@@H](CCCCN)NC(=O)[C@@H](CC(C)C)NC(=O)[C@H](N)Cc1c[nH]c2ccccc12)C(=O)NCC(=O)N[C@H](CC(C)C)C(=O)N[C@H](CCCNC(=N)N)C(=O)N[C@H](CCCCN)C(=O)N[C@H](CCCCN)C(=O)N[C@H](CCCNC(=N)N)C(N)=O` [WCopWK] (H-[dW][dL][dK][dW][dI]G[dL][dR][dK][dK][dR]-NH2), the “Minimum inhibitory concentrations, MDR A. baumannii” value (MDR A. baumannii) was over 20 µM, the “Minimum inhibitory concentrations, MDR P. aeruginosa” value (MDR P. aeruginosa) was over 20 µM and the “Minimum inhibitory concentrations, MDR S. aureus” value (MDR S. aureus) was over 20 µM. The “Minimum inhibitory concentrations, MDR E. faecalis” value (MDR E. faecalis) was over 20 µM.
For `CC[C@@H](C)[C@@H](NC(=O)[C@@H](Cc1c[nH]c2ccccc12)NC(=O)[C@H](NC(=O)[C@@H](CC(C)C)NC(=O)[C@H](N)Cc1c[nH]c2ccccc12)C(C)C)C(=O)NCC(=O)N[C@H](CC(C)C)C(=O)N[C@H](CCCNC(=N)N)C(=O)N[C@H](CCCCN)C(=O)N[C@H](CCCCN)C(=O)N[C@H](CCCNC(=N)N)C(N)=O` [WCopWV] (H-[dW][dL][dV][dW][dI]G[dL][dR][dK][dK][dR]-NH2), the “Minimum inhibitory concentrations, MDR A. baumannii” value (MDR A. baumannii) was 1.25 µM (≈ 1.82 µg/mL), the “Minimum inhibitory concentrations, MDR P. aeruginosa” value (MDR P. aeruginosa) was 10 µM (≈ 14.5 µg/mL) and the “Minimum inhibitory concentrations, MDR S. aureus” value (MDR S. aureus) was 2.5 µM (≈ 3.63 µg/mL). The “Minimum inhibitory concentrations, MDR E. faecalis” value (MDR E. faecalis) was 2.5 µM (≈ 3.63 µg/mL).
In the case of `CC[C@@H](C)[C@@H](NC(=O)[C@@H](Cc1c[nH]c2ccccc12)NC(=O)[C@@H](Cc1ccc(O)cc1)NC(=O)[C@@H](CC(C)C)NC(=O)[C@H](N)Cc1c[nH]c2ccccc12)C(=O)NCC(=O)N[C@H](CC(C)C)C(=O)N[C@H](CCCNC(=N)N)C(=O)N[C@H](CCCCN)C(=O)N[C@H](CCCCN)C(=O)N[C@H](CCCNC(=N)N)C(N)=O` [WCopWY] (H-[dW][dL][dY][dW][dI]G[dL][dR][dK][dK][dR]-NH2), the “Minimum inhibitory concentrations, MDR A. baumannii” value (MDR A. baumannii) is reported as 1.25 µM (≈ 1.9 µg/mL), the “Minimum inhibitory concentrations, MDR P. aeruginosa” value (MDR P. aeruginosa) is reported as 20 µM (≈ 30.4 µg/mL) and the “Minimum inhibitory concentrations, MDR S. aureus” value (MDR S. aureus) is reported as 10 µM (≈ 15.2 µg/mL). The “Minimum inhibitory concentrations, MDR E. faecalis” value (MDR E. faecalis) was 2.5 µM (≈ 3.79 µg/mL).
For `CC[C@H](C)[C@H](NC(=O)[C@H](Cc1c[nH]c2ccc(O)cc12)NC(=O)[C@H](CC(C)C)NC(=O)[C@H](CC(C)C)NC(=O)[C@@H](N)Cc1c[nH]c2ccc(O)cc12)C(=O)N[C@@H](C)C(=O)N[C@@H](CC(C)C)C(=O)N[C@@H](CCCNC(=N)N)C(=O)N[C@@H](CCCCN)C(=O)N[C@@H](CCCCN)C(N)=O` [WhCopW] (H-[Trp(5-OH)]LL[Trp(5-OH)]IALRKK-NH2), the “Minimum inhibitory concentrations, MDR A. baumannii” value (MDR A. baumannii) was over 20 µM, the “Minimum inhibitory concentrations, MDR P. aeruginosa” value (MDR P. aeruginosa) was over 20 µM and the “Minimum inhibitory concentrations, MDR S. aureus” value (MDR S. aureus) was 5 µM (≈ 6.79 µg/mL). The “Minimum inhibitory concentrations, MDR E. faecalis” value (MDR E. faecalis) was over 20 µM.
